Laboratory results published in patent publication US20210101874A1, “MICROBIOCIDAL OXADIAZOLE DERIVATIVES” (SYNGENTA PARTICIPATIONS AG, priority 2017, published 2021).

Legend:
[1] = system: Puccinia recondita f. sp. Tritici; assay: Puccinia recondita f. sp. tritici / wheat / leaf disc preventative (brown rust); type: in vivo; conditions: foliar, 200 ppm in the applied formulation, wheat leaf segments cv. Kanzler, inoculated 1 day after application, compared to untreated, assessed 7 to 9 days after application, read-out: disease control
Summary of the method: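 Single evaluation 7–9 d after spraying: % disease control compared with untreated leaf segments. Protocol: cv. Kanzler segments, preventative spray at 200 ppm, spore inoculation at day 1, 19° C., 75% rh, 12 h light/12 h dark.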

[2] = system: Puccinia recondita f. sp. Tritici; assay: Puccinia recondita f. sp. tritici / wheat / leaf disc curative (brown rust); type: in vivo; conditions: foliar, 200 ppm in the applied formulation, wheat leaf segments cv. Kanzler, applied 1 day after inoculation, compared to untreated, assessed 6 to 8 days after application, read-out: disease control
Summary of the method: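 Compound applied 1 day after spore inoculation of wheat cv. Kanzler leaf segments on agar (dark, 19 °C, 75% RH before treatment). After further incubation under 12 h light/12 h dark at 19 °C and 75% RH, disease control relative to untreated segments rated 6–8 days post-application.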

[3] = system: Phakopsora pachyrhizi; assay: Phakopsora pachyrhizi / soybean / leaf disc preventative (Asian soybean rust); type: in vivo; conditions: foliar, 200 ppm in the applied formulation, soybean leaf disks, inoculated one day after application, compared to untreated, assessed 12 to 14 days after application, read-out: disease control
Method: Leaf disks or leaf segments of various plant species are cut from plants grown in a greenhouse. The cut leaf disks or segments are placed in multiwell plates (24-well format) onto water agar. The leaf disks are sprayed with a test solution before (preventative) or after (curative) inoculation. Compounds to be tested are prepared as DMSO solutions (max. 10 mg/ml) which are diluted to the appropriate concentration with 0.025% Tween20 just before spraying. The inoculated leaf disks or segments are incubated under defined conditions (temperature, relative humidity, light, etc.) according to the respective test system. A single evaluation of disease level is carried out 3 to 14 days after inoculation, depending on the pathosystem. Percent disease control relative to the untreated check leaf disks or segments is then calculated.
Soybean leaf disks are placed on water agar in multiwell plates (24-well format) and sprayed with the formulated test compound diluted in water. One day after application leaf discs are inoculated by spraying a spore suspension on the lower leaf surface. After an incubation period in a climate cabinet of 24-36 hours in darkness at 20° C. and 75% rh leaf disc are kept at 20° C. with 12 h light/day and 75% rh. The activity of a compound is assessed as percent disease control compared to untreated when an appropriate level of disease damage appears in untreated check leaf disks (12 to 14 days after application).
The following compounds at 200 ppm in the applied formulation give at least 80% disease control in this test when compared to untreated control leaf disks under the same conditions, which show extensive disease development.

[4] = system: Glomerella lagenarium (Colletotrichum lagenarium); assay: Glomerella lagenarium (Colletotrichum lagenarium) liquid culture / cucumber / preventative (anthracnose); type: cell-based; conditions: Colletotrichum orbiculare; 20 ppm in the applied formulation; conidia in PDB nutrient broth, 24° C.; 3 to 4 days after application; compared to untreated; read-out: disease control (inhibition of growth measured photometrically)
Summary of the method: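 Test compound, diluted from DMSO, was mixed in microtiter wells with fungal conidia taken from cryogenic storage and suspended in PDB nutrient broth. After 3 to 4 days at 24 °C, photometric growth measurement gave antifungal activity as a percentage of the untreated control.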

SMILES | melting point [°C] | pest or weed control at 200 ppm [1] [%] | pest or weed control at 200 ppm [2] [%] | pest or weed control at 200 ppm [3] [%] | inhibition at 20 ppm [4] [%]
CCS(=O)(=O)NCc1ccc(-c2noc(C(F)(F)F)n2)cc1 [Compound 2.2, N-[[4-[5-(trifluoromethyl)-1,2,4-oxadiazol-3-yl]phenyl]methyl] ethanesulfon-amide] | 127 to 129 | ≥ 80 | ≥ 80 | ≥ 80 | ≥ 80
CN(C)S(=O)(=O)NCc1ccc(-c2noc(C(F)(F)F)n2)cc1 [Compound 2.3, 3-[4-[(dimethyl-sulfamoylamino)methyl]phenyl]-5-(trifluoromethyl)-1,2,4-oxadiazole] | 105 to 107 | ≥ 80 | ≥ 80 | ≥ 80 | ≥ 80

Further lines, with some results ahead:

melting point [°C] | SMILES | pest or weed control at 200 ppm [1] [%] | pest or weed control at 200 ppm [2] [%] | pest or weed control at 200 ppm [3] [%] | inhibition at 20 ppm [4] [%]
130 to 134 | O=S(=O)(NCc1ccc(-c2noc(C(F)(F)F)n2)cc1)C1CC1 [Compound 3.2, N-[[4-[5-(trifluoromethyl)-1,2,4-oxadiazol-3-yl]phenyl]methyl] cyclopropanesulfon-amide] | ≥ 80 | ≥ 80 | ≥ 80 | ≥ 80
140 to 144 | O=S(=O)(CC1CC1)NCc1ccc(-c2noc(C(F)(F)F)n2)cc1 [Compound 3.3, 1-cyclopropyl-N-[[4-[5-(trifluoromethyl)-1,2,4-oxadiazol-3-yl]phenyl]methyl] methanesulfonamide] | ≥ 80 | ≥ 80 | ≥ 80 | ≥ 80
117 to 122 | O=S(=O)(CC1CCOC1)NCc1ccc(-c2noc(C(F)(F)F)n2)cc1 (stereo not shown) [Compound 3.4, 1-tetrahydrofuran-3-yl-N-[[4-[5-(trifluoromethyl)-1,2,4-oxadiazol-3-yl]phenyl]methyl] methanesulfonamide] | ≥ 80 | ≥ 80 | ≥ 80 | ≥ 80
